# Experimental data published in paper PMC9150124, “Design of a Potent, Selective, and Brain-Penetrant Inhibitor of Wnt-Deactivating Enzyme Notum by Optimization of a Crystallographic Fragment Hit” (Journal of Medicinal Chemistry, 2022).
# Where “and” joins values, the source holds several entries; their conditions need not be identical. Identical values can stand only once. Like-named read-outs stand apart in the source and are kept apart here.
# Experiments:
# [1] = target: kinase named in conditions (Homo sapiens, UniProt O00750); assay: SelectScreen kinase profiling, SSBK Adapta SP Technology; type: biochemical; conditions: PIK3C2B (PI3K-C2 beta), 10 μM
# [2] = target: kinase named in conditions (Homo sapiens, UniProt O14986); assay: as above; type: biochemical; conditions: PIP5K1B, 10 μM
# [3] = target: kinase named in conditions (Homo sapiens, UniProt O60331); assay: as above; type: biochemical; conditions: PIP5K1C, 10 μM
# [4] = target: kinase named in conditions (Homo sapiens, UniProt P42336); assay: as above; type: biochemical; conditions: 10 μM
# [5] = target: kinase named in conditions (Homo sapiens, UniProt P42336, E545K); assay: as above; type: biochemical; conditions: PIK3CA E545K/PIK3R1 (p110 alpha E545K/p85 alpha), 10 μM
# [6] = target: kinase named in conditions (Homo sapiens, UniProt P42338); assay: as above; type: biochemical; conditions: 10 μM
# [7] = target: kinase named in conditions (Homo sapiens, UniProt P42356); assay: as above; type: biochemical; conditions: PI4KA (PI4K alpha), 10 μM
# [8] = target: kinase named in conditions (Homo sapiens, UniProt P50750); assay: as above; type: biochemical; conditions: CDK9/cyclin T1, 10 μM
# [9] = target: kinase named in conditions (Homo sapiens, UniProt Q00534); assay: as above; type: biochemical; conditions: CDK6/cyclin D1, 10 μM
# [10] = target: kinase named in conditions (Homo sapiens, UniProt Q5S007); assay: as above; type: biochemical; conditions: LRRK2 FL, 10 μM
# [11] = target: kinase named in conditions (Homo sapiens, UniProt Q99755); assay: as above; type: biochemical; conditions: PIP5K1A, 10 μM
# [12] = target: kinase named in conditions (Homo sapiens, UniProt Q9BTU6); assay: as above; type: biochemical; conditions: PI4K2A (PI4K2 alpha), 10 μM
# [13] = test system: kinase named in conditions; assay: as above; type: biochemical
# [14] = test system: 47 human off-target liabilities; assay: DiscoverX Safety47 panel (78 functional assays); conditions: @ 30 μM
# Protocol: (§1) Screening for off-target pharmacology across multiple drug target classes was performed in the DiscoverX Safety47 panel as the SAFETYscan E/IC50 ELECT service by Eurofins (San Diego CA, U.S.A.). Assay information and data are presented in the Supporting Information.
# (§2) Safety pharmacology studies
# (§3) Screening for off-target pharmacology across multiple drug target classes was performed in the DiscoverX Safety47™ panel as the SAFETYscan E/IC50 ELECT service by eurofins (San Diego CA, U.S.A.). The assays were performed utilizing the PathHunter enzyme fragment complementation (EFC) technology, FLIPR®-based cellular screening assays, KINOMEscan kinase binding assays, and a variety of enzymatic assays (78 assays).
# HTR3A = target: T1, HTR3A (Homo sapiens, UniProt P46098); assay: Safety47 HTR3A antagonist assay; type: cell-based
# T1 construct: Eurofins (DiscoverX Safety47)
# Protocol: as §1, §2, §3
# [15] = Brain tissue binding, rapid equilibrium dialysis; type: in vitro ADME, rat
# Protocol: Method: rapid equilibrium dialysis.
# Test System Mouse Brain Homogenate 10% w/v in PBS
# Incubation Time 5 h (mouse) or 4 h (rat)
# No. of Replicates Two (mouse) or three (rat)
# Buffer Phosphate buffer saline, pH 7.4
# % Unbound in brain % Bound in brain %
# Compound Species / Matrix homogenate SD homogenate Recovery
# CYP2C8 = target: T2, CYP2C8 (Homo sapiens, UniProt P10632); assay: CYP450 inhibition in HLM
# T2 sequence (P10632 1-490): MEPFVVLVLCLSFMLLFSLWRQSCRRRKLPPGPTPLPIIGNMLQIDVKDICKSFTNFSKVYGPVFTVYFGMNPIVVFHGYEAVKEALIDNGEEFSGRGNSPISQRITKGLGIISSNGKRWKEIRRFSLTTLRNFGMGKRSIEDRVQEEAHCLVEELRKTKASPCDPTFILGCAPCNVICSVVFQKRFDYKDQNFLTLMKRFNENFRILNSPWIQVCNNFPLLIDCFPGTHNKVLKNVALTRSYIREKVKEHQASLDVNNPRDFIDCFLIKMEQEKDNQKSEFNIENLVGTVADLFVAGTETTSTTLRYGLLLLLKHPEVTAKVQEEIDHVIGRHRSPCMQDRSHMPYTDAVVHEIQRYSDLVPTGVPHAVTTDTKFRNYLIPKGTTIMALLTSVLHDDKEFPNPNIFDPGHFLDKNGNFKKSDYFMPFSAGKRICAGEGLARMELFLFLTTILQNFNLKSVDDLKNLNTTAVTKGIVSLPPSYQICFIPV
# CYP3A4 = CYP3A4 (Homo sapiens, UniProt P08684); assay: CYP450 inhibition in HLM
# [16] = Stability in rat liver microsomes
# serine hydrolases = assay: ABPP-TMT serine hydrolase selectivity in SW620 cells; conditions: SW620 conditioned media and cell lysates
# [17] = Sprague–Dawley male rats, i.v. 1.0 mg/kg
# CYP3A4, sequence (P08684 whole entry): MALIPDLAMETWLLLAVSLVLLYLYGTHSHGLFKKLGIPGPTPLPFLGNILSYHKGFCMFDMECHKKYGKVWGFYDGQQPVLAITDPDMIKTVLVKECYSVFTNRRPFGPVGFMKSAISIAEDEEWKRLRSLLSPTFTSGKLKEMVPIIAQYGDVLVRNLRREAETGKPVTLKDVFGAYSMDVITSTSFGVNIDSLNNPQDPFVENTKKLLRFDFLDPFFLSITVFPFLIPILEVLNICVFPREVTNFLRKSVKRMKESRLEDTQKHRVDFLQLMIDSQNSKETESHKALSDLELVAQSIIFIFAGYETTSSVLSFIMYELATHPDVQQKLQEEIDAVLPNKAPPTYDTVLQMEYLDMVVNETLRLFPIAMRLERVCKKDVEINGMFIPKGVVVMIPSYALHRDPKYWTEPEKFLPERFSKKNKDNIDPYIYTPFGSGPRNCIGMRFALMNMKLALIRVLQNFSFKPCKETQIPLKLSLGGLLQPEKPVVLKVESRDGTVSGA
# kinase named in conditions (Homo sapiens, UniProt O14986), sequence (O14986 whole entry): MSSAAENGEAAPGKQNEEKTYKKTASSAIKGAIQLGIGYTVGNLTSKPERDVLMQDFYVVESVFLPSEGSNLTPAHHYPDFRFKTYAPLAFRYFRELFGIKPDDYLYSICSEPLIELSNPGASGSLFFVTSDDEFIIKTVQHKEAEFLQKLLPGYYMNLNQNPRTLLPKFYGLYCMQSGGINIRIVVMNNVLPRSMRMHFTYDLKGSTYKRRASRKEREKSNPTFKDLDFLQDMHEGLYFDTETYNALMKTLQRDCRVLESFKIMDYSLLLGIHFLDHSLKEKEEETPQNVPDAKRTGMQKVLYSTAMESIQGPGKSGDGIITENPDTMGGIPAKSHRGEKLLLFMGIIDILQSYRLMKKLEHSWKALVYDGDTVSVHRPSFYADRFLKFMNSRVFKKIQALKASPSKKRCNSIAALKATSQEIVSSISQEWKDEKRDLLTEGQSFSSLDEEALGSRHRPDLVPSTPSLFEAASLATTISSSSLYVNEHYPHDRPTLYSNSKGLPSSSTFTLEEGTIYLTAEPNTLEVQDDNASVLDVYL
# kinase named in conditions (Homo sapiens, UniProt O60331), sequence (O60331 whole entry): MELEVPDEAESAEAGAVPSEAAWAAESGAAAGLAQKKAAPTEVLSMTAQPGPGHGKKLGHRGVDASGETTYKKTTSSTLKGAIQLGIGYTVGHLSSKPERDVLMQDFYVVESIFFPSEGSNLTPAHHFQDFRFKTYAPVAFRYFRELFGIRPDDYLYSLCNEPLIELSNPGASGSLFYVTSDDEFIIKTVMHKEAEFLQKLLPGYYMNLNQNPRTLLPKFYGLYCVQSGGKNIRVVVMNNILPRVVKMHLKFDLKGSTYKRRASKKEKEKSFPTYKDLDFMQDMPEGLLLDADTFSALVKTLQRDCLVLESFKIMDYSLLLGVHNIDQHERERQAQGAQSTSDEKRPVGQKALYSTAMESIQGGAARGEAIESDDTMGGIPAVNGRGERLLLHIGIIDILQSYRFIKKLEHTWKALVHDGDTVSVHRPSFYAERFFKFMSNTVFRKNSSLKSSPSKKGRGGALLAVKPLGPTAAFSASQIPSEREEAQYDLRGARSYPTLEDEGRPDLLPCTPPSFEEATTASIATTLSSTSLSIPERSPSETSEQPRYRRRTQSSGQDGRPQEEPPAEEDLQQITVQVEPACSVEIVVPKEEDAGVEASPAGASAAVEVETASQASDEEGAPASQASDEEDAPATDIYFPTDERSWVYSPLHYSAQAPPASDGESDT
# kinase named in conditions (Homo sapiens, UniProt O00750), sequence (O00750 whole entry): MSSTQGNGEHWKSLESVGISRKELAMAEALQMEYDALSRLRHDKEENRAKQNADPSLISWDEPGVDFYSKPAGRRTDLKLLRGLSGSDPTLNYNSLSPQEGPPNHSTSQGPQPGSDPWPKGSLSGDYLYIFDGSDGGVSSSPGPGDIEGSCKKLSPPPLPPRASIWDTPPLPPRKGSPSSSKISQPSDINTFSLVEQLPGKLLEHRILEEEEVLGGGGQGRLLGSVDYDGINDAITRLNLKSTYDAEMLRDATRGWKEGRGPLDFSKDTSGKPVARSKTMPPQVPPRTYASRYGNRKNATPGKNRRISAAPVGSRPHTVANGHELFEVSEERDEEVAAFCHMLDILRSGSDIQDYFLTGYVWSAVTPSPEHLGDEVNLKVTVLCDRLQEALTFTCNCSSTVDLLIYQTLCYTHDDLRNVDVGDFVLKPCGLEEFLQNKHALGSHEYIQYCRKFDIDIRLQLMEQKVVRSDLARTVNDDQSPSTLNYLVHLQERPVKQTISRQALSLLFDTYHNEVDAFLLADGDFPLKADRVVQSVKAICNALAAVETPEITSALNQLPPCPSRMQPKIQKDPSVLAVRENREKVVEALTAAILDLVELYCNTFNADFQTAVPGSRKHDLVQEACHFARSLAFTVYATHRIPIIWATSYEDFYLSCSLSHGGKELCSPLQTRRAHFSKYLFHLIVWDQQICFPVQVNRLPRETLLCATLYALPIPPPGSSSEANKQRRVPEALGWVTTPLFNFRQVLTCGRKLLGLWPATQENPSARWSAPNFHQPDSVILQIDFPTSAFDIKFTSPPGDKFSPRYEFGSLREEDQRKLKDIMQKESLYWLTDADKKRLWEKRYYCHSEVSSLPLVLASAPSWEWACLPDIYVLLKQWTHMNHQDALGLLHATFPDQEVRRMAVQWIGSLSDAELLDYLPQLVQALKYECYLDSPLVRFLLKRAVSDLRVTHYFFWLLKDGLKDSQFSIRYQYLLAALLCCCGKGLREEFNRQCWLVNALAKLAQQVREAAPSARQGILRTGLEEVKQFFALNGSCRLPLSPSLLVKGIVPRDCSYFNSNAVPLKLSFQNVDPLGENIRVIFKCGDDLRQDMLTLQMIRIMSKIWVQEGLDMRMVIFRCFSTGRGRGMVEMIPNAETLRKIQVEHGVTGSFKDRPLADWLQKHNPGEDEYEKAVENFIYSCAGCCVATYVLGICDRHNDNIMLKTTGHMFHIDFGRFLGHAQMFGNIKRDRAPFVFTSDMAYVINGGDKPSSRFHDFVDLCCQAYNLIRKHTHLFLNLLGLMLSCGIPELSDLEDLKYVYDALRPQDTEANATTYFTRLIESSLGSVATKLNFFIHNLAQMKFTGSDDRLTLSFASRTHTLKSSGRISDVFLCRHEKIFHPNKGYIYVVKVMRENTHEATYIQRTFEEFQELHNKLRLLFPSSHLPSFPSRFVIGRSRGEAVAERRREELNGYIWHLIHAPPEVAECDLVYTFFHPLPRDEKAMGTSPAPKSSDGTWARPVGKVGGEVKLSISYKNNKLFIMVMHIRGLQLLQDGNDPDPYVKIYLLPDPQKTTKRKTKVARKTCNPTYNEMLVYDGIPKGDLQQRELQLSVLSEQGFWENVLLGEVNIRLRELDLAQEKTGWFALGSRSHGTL
# kinase named in conditions (Homo sapiens, UniProt P50750), sequence (P50750 whole entry): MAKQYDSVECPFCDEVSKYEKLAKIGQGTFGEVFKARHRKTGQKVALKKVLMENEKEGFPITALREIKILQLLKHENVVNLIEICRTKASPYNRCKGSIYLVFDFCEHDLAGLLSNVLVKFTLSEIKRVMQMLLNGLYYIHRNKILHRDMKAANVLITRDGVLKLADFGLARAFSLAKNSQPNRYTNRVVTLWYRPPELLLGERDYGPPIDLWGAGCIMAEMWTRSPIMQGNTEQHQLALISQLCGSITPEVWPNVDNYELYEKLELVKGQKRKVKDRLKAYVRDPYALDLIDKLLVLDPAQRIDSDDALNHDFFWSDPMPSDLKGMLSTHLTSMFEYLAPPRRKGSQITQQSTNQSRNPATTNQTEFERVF
# kinase named in conditions (Homo sapiens, UniProt P50750), sequence (O60563 whole entry partner): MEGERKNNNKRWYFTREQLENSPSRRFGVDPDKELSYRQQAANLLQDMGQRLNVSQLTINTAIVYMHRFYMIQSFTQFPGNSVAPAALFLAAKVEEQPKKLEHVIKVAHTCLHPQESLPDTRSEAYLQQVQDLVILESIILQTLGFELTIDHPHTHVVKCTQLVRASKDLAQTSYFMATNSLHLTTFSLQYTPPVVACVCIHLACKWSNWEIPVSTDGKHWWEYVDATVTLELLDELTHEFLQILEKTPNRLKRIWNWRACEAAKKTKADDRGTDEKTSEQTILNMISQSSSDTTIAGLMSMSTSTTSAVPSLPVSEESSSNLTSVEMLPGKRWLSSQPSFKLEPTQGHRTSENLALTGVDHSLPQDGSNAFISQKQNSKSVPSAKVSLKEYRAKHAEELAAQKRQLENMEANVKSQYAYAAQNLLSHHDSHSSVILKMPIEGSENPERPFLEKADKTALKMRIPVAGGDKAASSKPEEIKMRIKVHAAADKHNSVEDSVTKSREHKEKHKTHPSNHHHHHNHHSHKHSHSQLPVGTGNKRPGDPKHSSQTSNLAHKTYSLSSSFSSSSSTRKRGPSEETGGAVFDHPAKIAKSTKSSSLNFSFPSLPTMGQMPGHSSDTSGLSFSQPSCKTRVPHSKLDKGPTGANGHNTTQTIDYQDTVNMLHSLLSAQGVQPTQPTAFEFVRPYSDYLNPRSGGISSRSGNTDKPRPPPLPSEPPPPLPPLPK
# T1 sequence (P46098 24-478): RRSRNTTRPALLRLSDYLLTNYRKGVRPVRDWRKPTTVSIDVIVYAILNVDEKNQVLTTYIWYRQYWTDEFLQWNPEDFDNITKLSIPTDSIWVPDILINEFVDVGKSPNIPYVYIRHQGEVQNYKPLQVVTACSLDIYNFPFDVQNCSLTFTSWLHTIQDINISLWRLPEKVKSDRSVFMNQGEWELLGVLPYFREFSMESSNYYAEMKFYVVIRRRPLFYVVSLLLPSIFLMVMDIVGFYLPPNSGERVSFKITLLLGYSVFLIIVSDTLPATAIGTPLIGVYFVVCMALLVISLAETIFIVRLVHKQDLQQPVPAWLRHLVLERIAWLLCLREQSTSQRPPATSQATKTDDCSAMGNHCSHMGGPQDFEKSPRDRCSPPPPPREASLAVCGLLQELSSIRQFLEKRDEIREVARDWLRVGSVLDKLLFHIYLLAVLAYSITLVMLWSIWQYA
smiles,measurement,setting,value
"FC(F)(F)c1c(Cl)ccc(-n2ccnn2)c1Cl [8l, 1-(2,4-Dichloro-3-(trifluoromethyl)phenyl)-1H-1,2,3-triazole]",inhibition at 10 µM,[1],8%
same,inhibition at 10 µM,[2],1%
same,inhibition at 10 µM,[3],-2%
same,inhibition at 10 µM,[4]; PIK3CA/PIK3R1 (p110 alpha/p85 alpha),-6%
same,inhibition at 10 µM,[4]; PIK3CA/PIK3R3 (p110 alpha/p55 gamma),0%
same,inhibition at 10 µM,[5],8%
same,inhibition at 10 µM,[6]; PIK3CB/PIK3R1 (p110 beta/p85 alpha),1%
same,inhibition at 10 µM,[6]; PIK3CB/PIK3R2 (p110 beta/p85 beta),15%
same,inhibition at 10 µM,[7],-4%
same,inhibition at 10 µM,[8],-3%
same,inhibition at 10 µM,[9],-3%
same,inhibition at 10 µM,[10],7%
same,inhibition at 10 µM,[11],0%
same,inhibition at 10 µM,[12],13%
same,% Inhibition mean,"[13]; DAPK1, 10 μM",-8%
same,% Inhibition mean,"[13]; IRAK1, 10 μM",-10%
same,% Inhibition mean,"[13]; LRRK2, 10 μM",-12%
same,% Inhibition mean,"[13]; LRRK2 G2019S, 10 μM",1%
same,% Inhibition mean,"[13]; LRRK2 I2020T, 10 μM",1%
same,% Inhibition mean,"[13]; LRRK2 R1441C, 10 μM",1%
same,% Inhibition mean,"[13]; SPHK1, 10 μM",-8%
same,% Inhibition mean,"[13]; SPHK2, 10 μM",0%
same,assays with >50% activity,[14],3/78
same,IC50,HTR3A,4.5 µM
same,"fraction unbound at 4 h, 2 µM","[15]; brain homogenate, pH 7.4, SD rat, 4 h",0.029
same,"recovery at 4 h, 2 µM","[15]; pH 7.4, SD rat brain homogenate",86.8%
same,"Brain binding, % bound",[15]; rat brain homogenate,97.1%
same,CL,[17],7.5 mL/min/kg
same,Vdss,[17],2.0 L/kg
same,t1/2,[17],3.3 h
same,Fo,"rat, p.o. 10 mg/kg",140%
same,AUC0–inf,"rat, p.o. 10 mg/kg, brain",46 100 ng·h/g
same,Tmax,"rat, p.o. 10 mg/kg, brain",0.5 h
same,t1/2,"rat, p.o. 10 mg/kg, brain",8.9 h
same,AUC0–inf,"rat, p.o. 10 mg/kg, plasma",32 000 ng·h/mL
same,Tmax,"rat, p.o. 10 mg/kg, plasma",4.0 h
same,t1/2,"rat, p.o. 10 mg/kg, plasma",4.7 h
same,IC50,"CYP2C8; read-out: CYP inhibition IC50, 2C8, HLM",> 50 µM
same,IC50,"CYP2C8; read-out: IC50 CYP2C8/Amodiaquine, (+)NADPH pre-incubation",> 50 µM
same,IC50,"CYP2C8; read-out: IC50 CYP2C8/Amodiaquine, (-)NADPH pre-incubation",> 50 µM
same,IC50,"CYP3A4; read-out: CYP inhibition IC50, 3A4(mid.), HLM, midazolam",> 50 µM
same,IC50,"CYP3A4; read-out: CYP inhibition IC50, 3A4(test.), HLM, testosterone",> 50 µM
same,IC50,"CYP3A4; read-out: IC50 CYP3A4/Midazolam, (+)NADPH pre-incubation",> 50 µM
same,IC50,"CYP3A4; read-out: IC50 CYP3A4/Midazolam, (-)NADPH pre-incubation",> 50 µM
same,IC50,"CYP3A4; read-out: IC50 CYP3A4/Testosterone, (+)NADPH pre-incubation",> 50 µM
same,IC50,"CYP3A4; read-out: IC50 CYP3A4/Testosterone, (-)NADPH pre-incubation",> 50 µM
same,"Liver microsome stability Cli, RLM",[16],< 9.6 μL/min/mg protein
same,half-life,"[16]; rat, liver microsomes",> 145 min
same,Cross reactivity (other serine hydrolases detected),serine hydrolases,no cross reactivity against any of the other 39 serine hydrolases detected and 0/39
